Laboratory results taken from patent publication US11617366B2, “Solvents for agricultural applications and pesticide formulations” (Dow Global Technologies LLC, priority 2017, dated 2023).
Read-outs that look alike come from different tables or passages of the source.

Assay: Solubility of pesticide powders in solvents, 2% stepwise increments
Conditions: for Dissolving power: compared with comparative solvents DMSO and DMAA810, for each of the active ingredients evaluated
Experimental: The solubility of various pesticides in these solvents or solvent components are evaluated.

[1] = solvent DEAC (N,N-diethyl acetamide), last concentration before powder not dissolved, 2% steps, no more than 2% lower than actual solubility
[2] = solvent DMAA810, last concentration before powder not dissolved, 2% steps, no more than 2% lower than actual solubility
[3] = solvent DMPA (N,N-dimethyl propanamide), last concentration before powder not dissolved, 2% steps, no more than 2% lower than actual solubility
[4] = solvent DMSO, last concentration before powder not dissolved, 2% steps, no more than 2% lower than actual solubility

| Molecule | Solubility in DEAC [1] | Solubility in DMAA810 [2] | Solubility in DMPA [3] | Solubility in DMSO [4] | Solubility in DEAC | Solubility in DMAA810 | Solubility in DMPA | Solubility in DMSO | Dissolving power |
| --- | --- | --- | --- | --- | --- | --- | --- | --- | --- |
| Cc1c(COC(=O)[C@@H]2[C@H](/C=C(\Cl)C(F)(F)F)C2(C)C)cccc1-c1ccccc1 (racemic) [Bifenthrin] | 50 weight % | 33 weight % | 47 weight % | 7 weight % |  |  |  |  |  |
| CC(C)N1C(=O)N(c2ccccc2)CS/C1=N\C(C)(C)C [Buprofezin] |  |  |  |  | 31 weight % | 22 weight % | 33 weight % | 1 weight % |  |
| CCN(CC)C(C)=O [DEAC, N,N-diethyl acetamide] |  |  |  |  |  |  |  |  | stronger |
| CCC(=O)N(C)C [DMPA, N,N-dimethyl propanamide] |  |  |  |  |  |  |  |  | stronger |
| CCCCC(C#N)(Cn1cncn1)c1ccc(Cl)cc1 (stereo not drawn) [Myclobutanil] | 57 weight % | 42 weight % | 58 weight % | 57 weight % |  |  |  |  |  |
| COC(=O)N(OC)c1ccccc1COc1ccn(-c2ccc(Cl)cc2)n1 [Pyraclostrobin] | 54 weight % | 42 weight % | 63 weight % | 40 weight % |  |  |  |  |  |
| CC(C)(C)C(O)(CCc1ccc(Cl)cc1)Cn1cncn1 (stereo not drawn) [Tebuconazole] |  | 37 weight % |  | 32 weight % | 51 weight % |  | 54 weight % |  |  |
| CC(C)(C)C(=O)C(Oc1ccc(Cl)cc1)n1cncn1 (stereo not drawn) [Triazolone] | 54 weight % | 39 weight % | 58 weight % | 43 weight % |  |  |  |  |  |
| Abamectin | 50 weight % | 38 weight % | 51 weight % | 21 weight % |  |  |  |  |  |
